Reference: US20080004253A1, “Thiazolopyrimidine modulators of TRPV1” (priority 2006, published 2008)

How the values were obtained:
[1] = molecular target: T1, human TRPV1 (Homo sapiens, UniProt Q8NER1); assay: Functional assay: block of capsaicin-induced Ca2+ influx, human assay (hTRPV1/HEK293, FLIPR); assay type: cell-based; details: hTRPV1/HEK293 cells, 150 nM capsaicin challenge, Fluo-3 fluorescence; mean; > value = solubility limit in assay medium
T1 construct: expressed in transfected cells; host or cells: HEK293 (hTRPV1/HEK293), zeocin selection
Procedure, shortened: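 HEK293 cells stably expressing human TRPV1, fluo3-loaded, preincubated 30 min with compound (serial 3-fold dilutions from 10 μM, duplicate) in 20 μM Ca2+ buffer. Capsaicin response taken as fluo3 fluorescence change before vs 100 s after agonist; IC50 by non-linear regression, mean values; free base or TFA salt.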

[2] = molecular target: T2, rat TRPV1 (Rattus norvegicus, UniProt O35433); assay: Functional assay: block of capsaicin-induced Ca2+ influx, rat assay (rTRPV1/HEK293, FLIPR); assay type: cell-based; details: rTRPV1/HEK293 cells, capsaicin challenge, Fluo-3 fluorescence; mean; > value = solubility limit in assay medium
T2 construct: expressed in transfected cells; host or cells: HEK293 (rTRPV1/HEK293), geneticin selection
Procedure, shortened: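 Compounds, as free base or TFA salt, tested from 10 μM in three-fold steps on rTRPV1-transfected HEK293 cells, with 30 min preincubation in low-calcium (20 μM) buffer. Capsaicin-evoked Ca2+ influx measured by FLIPR fluo3 signal before and 100 s after addition. Averaged IC50 from non-linear fits.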

T1 sequence (Q8NER1 whole entry): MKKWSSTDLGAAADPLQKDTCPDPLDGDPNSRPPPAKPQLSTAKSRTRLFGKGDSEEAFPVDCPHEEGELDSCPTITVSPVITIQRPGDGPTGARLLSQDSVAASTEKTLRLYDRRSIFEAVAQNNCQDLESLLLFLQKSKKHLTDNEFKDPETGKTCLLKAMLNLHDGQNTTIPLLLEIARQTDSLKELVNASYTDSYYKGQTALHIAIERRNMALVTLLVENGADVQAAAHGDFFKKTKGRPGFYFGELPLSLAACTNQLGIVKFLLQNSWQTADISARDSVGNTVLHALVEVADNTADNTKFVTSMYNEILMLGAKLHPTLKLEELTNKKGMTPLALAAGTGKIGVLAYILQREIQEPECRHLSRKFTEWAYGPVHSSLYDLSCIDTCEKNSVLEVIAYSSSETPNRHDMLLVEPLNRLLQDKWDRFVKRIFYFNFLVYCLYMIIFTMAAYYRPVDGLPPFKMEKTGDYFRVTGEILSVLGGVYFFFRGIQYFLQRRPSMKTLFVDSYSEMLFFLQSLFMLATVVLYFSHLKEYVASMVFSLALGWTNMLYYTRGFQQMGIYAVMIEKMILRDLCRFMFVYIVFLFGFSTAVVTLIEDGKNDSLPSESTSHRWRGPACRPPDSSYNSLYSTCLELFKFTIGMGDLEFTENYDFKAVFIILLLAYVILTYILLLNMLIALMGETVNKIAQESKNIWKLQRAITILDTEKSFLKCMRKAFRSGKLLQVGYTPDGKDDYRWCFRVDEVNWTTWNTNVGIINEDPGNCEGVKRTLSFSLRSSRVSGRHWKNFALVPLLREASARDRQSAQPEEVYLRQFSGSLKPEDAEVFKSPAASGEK
T2 sequence (O35433 whole entry): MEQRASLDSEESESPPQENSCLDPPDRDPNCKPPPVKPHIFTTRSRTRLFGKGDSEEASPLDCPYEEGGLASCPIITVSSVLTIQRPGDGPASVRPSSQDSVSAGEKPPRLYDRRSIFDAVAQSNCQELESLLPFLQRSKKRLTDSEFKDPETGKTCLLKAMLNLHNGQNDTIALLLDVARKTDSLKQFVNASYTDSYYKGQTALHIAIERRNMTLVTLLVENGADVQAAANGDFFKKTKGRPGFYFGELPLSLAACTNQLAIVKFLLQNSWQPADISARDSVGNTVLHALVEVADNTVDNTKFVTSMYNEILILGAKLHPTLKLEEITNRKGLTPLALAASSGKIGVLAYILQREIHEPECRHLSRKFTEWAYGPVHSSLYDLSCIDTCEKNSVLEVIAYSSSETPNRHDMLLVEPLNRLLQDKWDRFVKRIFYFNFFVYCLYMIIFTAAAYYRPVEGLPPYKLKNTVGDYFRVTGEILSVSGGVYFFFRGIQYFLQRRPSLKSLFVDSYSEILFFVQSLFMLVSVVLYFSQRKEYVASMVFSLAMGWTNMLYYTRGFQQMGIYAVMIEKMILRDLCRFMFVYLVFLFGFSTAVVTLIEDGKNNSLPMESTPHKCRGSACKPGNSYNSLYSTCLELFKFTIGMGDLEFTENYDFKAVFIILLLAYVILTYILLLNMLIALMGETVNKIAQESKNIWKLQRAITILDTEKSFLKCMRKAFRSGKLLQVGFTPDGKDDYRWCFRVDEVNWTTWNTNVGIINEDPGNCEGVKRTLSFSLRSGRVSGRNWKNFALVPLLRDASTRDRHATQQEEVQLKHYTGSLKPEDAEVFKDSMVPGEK

## Cc1cccc(C)c1Nc1nc2c(Nc3ccc(Cl)cc3)ncnc2s1 [Example 132, N^7-(4-Chloro-phenyl)-N^2-(2,6-dimethyl-phenyl)-thiazolo[5,4-d]pyrimidine-2,7-diamine]
[1]
  IC50: 172 nM
[2]
  IC50: 73 nM

## Cc1nc(Nc2ccc(C)c(F)c2)c2nc(Nc3c(C)cccc3C)sc2n1 [Example 133, N^2-(2,6-Dimethyl-phenyl)-N^7-(3-fluoro-4-methyl-phenyl)-5-methyl-thiazolo[5,4-d]pyrimidine-2,7-diamine]
[1]
  IC50: 175 nM
[2]
  IC50: 107 nM

## O=S(=O)(c1ccc(Nc2ncnc3sc(Nc4c(Cl)cccc4Cl)nc23)cc1)N1CCNCC1 [Example 134, N^2-(2,6-Dichloro-phenyl)-N^7-[4-(piperazine-1-sulfonyl)-phenyl]-thiazolo[5,4-d]pyrimidine-2,7-diamine]
[1]
  IC50: 202 nM
[2]
  IC50: 78 nM

## Cc1nc(Nc2ccc(SC(F)(F)F)c(Cl)c2)c2nc(Nc3c(Cl)cccc3Cl)sc2n1 [Example 135, N^7-(3-Chloro-4-trifluoromethylsulfanyl-phenyl)-N^2-(2,6-dichloro-phenyl)-5-methyl-thiazolo[5,4-d]pyrimidine-2,7-diamine]
[1]
  IC50: 203 nM
[2]
  IC50: 112 nM

## Cc1cccc(C)c1Nc1nc2c(Nc3ccc(I)cc3)ncnc2s1 [Example 137, N^2-(2,6-Dimethyl-phenyl)-N^7-(4-iodo-phenyl)-thiazolo[5,4-d]pyrimidine-2,7-diamine]
[1]
  IC50: 225 nM
[2]
  IC50: 48 nM

## Cc1ccc(Nc2nc(C)nc3sc(Nc4c(C)cccc4C)nc23)cc1 [Example 138, N^2-(2,6-Dimethyl-phenyl)-5-methyl-N^7-p-tolyl-thiazolo[5,4-d]pyrimidine-2,7-diamine]
[1]
  IC50: 271 nM
[2]
  IC50: 128 nM

## Cc1nc(Nc2ccc3c(c2)N(C)CCC3)c2nc(Nc3c(Cl)cccc3Cl)sc2n1 [Example 139, N^2-(2,6-Dichloro-phenyl)-5-methyl-N^7-(1-methyl-1,2,3,4-tetrahydro-quinolin-7-yl)-thiazolo[5,4-d]pyrimidine-2,7-diamine]
[1]
  IC50: 280 nM
[2]
  IC50: 78 nM

## Cc1nc(Nc2ccccc2)c2nc(Nc3c(C)cccc3C)sc2n1 [Example 141, N^2-(2,6-Dimethyl-phenyl)-5-methyl-N^7-phenyl-thiazolo[5,4-d]pyrimidine-2,7-diamine]
[1]
  IC50: 350 nM
[2]
  IC50: 223 nM

## Cc1cccc(C)c1Nc1nc2c(Nc3ccc(C#N)c(Cl)c3)ncnc2s1 [Example 142, 2-Chloro-4-[2-(2,6-dimethyl-phenylamino)-thiazolo[5,4-d]pyrimidin-7-ylamino]-benzonitrile]
[1]
  IC50: 394 nM
[2]
  IC50: 231 nM

## Cc1cccc(C)c1Nc1nc2c(Nc3ccc(F)cc3)ncnc2s1 [Example 144, N^2-(2,6-Dimethyl-phenyl)-N^7-(4-fluoro-phenyl)-thiazolo[5,4-d]pyrimidine-2,7-diamine]
[1]
  IC50: 431 nM
[2]
  IC50: 221 nM

## Cc1cccc(C)c1Nc1nc2c(Nc3ccc(C(=O)N(C)C)cc3)ncnc2s1 [Example 145, 4-[2-(2,6-Dimethyl-phenylamino)-thiazolo[5,4-d]pyrimidin-7-ylamino]-N,N-dimethyl-benzamide]
[1]
  IC50: 452 nM
[2]
  IC50: 442 nM

## Cc1cccc(C)c1Nc1nc2c(Nc3ccccc3)ncnc2s1 [Example 147, N^2-(2,6-Dimethyl-phenyl)-N^7-phenyl-thiazolo[5,4-d]pyrimidine-2,7-diamine]
[1]
  IC50: 723 nM
[2]
  IC50: 354 nM

## Cc1ccc(Nc2ncnc3sc(Nc4c(C)cccc4C)nc23)cc1F [Example 148, N^2-(2,6-Dimethyl-phenyl)-N^7-(3-fluoro-4-methyl-phenyl)-thiazolo[5,4-d]pyrimidine-2,7-diamine]
[1]
  IC50: 735 nM
[2]
  IC50: 126 nM

## Cc1cccc(C)c1Nc1nc2c(Nc3ccc(C#N)c(C(F)(F)F)c3)ncnc2s1 [Example 149, 4-[2-(2,6-Dimethyl-phenylamino)-thiazolo[5,4-d]pyrimidin-7-ylamino]-2-trifluoromethyl-benzonitrile]
[1]
  IC50: 737 nM
[2]
  IC50: 257 nM

## Cc1cccc(C)c1Nc1nc2c(Nc3ccc4c(c3)OCCO4)ncnc2s1 [Example 150, N^7-(2,3-Dihydro-benzo[1,4]dioxin-6-yl)-N^2-(2,6-dimethyl-phenyl)-thiazolo[5,4-d]pyrimidine-2,7-diamine]
[1]
  IC50: 937 nM
[2]
  IC50: 204 nM

## Cc1cccc(C)c1Nc1nc2c(Nc3ccc(S(=O)(=O)N4CCNCC4)cc3)ncnc2s1 [Example 151, N^2-(2,6-Dimethyl-phenyl)-N^7-[4-(Piperazine-1-sulfonyl)-phenyl]-thiazolo[5,4-d]pyrimidine-2,7-diamine]
[1]
  IC50: 1220 nM
[2]
  IC50: 349 nM

## Cc1nc(Nc2ccc(N(C)S(C)(=O)=O)cc2)c2nc(Nc3c(Cl)cccc3Cl)sc2n1 [Example 152, N-{4-[2-(2,6-Dichloro-phenylamino)-5-methyl-thiazolo[5,4-d]pyrimidin-7-ylamino]-phenyl}-N-methyl-methanesulfonamide]
[1]
  IC50: 1220 nM
[2]
  IC50: 205 nM

## CN1CCN(CCCNc2nc(Nc3ccc(C(F)(F)F)cc3)c3nc(Nc4c(Cl)cccc4Cl)sc3n2)CC1 [Example 153, N^2-(2,6-Dichloro-phenyl)-N^5-[3-(4-methyl-piperazin-1-yl)-propyl]-N^7-(4-trifluoromethyl-phenyl)-thiazolo[5,4-d]pyrimidine-2,5,7-diamine]
[1]
  IC50: 1420 nM
[2]
  IC50: 440 nM

## Cc1nc(Nc2ccc(C(=O)N(C)C)cc2)c2nc(Nc3c(Cl)cccc3Cl)sc2n1 [Example 157, 4-[2-(2,6-Dichloro-phenylamino)-5-methyl-thiazolo[5,4-d]pyrimidin-7-ylamino]-N,N-dimethyl-benzamide]
[1]
  IC50: 1920 nM
[2]
  IC50: 1210 nM

## Cc1ccc(Nc2ncnc3sc(Nc4c(C)cccc4C)nc23)c(O)c1 [Example 158, 2-[2-(2,6-Dimethyl-phenylamino)-thiazolo[5,4-d]pyrimidin-7-ylamino]-5-methyl-phenol]
[1]
  IC50: 1970 nM
[2]
  IC50: 313 nM

## Cc1cc(C(F)(F)F)ccc1Nc1ncnc2sc(Nc3c(C)cccc3C)nc12 [Example 159, N^2-(2,6-Dimethyl-phenyl)-N^7-(2-methyl-4-trifluoromethyl-phenyl)-thiazolo[5,4-d]pyrimidine-2,7-diamine]
[1]
  IC50: > 2220 nM
[2]
  IC50: 1460 nM

## Cc1ccc(Nc2ncnc3sc(Nc4c(C)cccc4C)nc23)cc1O [Example 160, 5-[2-(2,6-Dimethyl-phenylamino)-thiazolo[5,4-d]pyrimidin-7-ylamino]-2-methyl-phenol]
[1]
  IC50: 2990 nM
[2]
  IC50: > 6670 nM

## Cc1cccc(C)c1Nc1nc2c(Nc3ccc(N(C)S(C)(=O)=O)cc3)ncnc2s1 [Example 161, N-{4-[2-(2,6-Dimethyl-phenylamino)-thiazolo[5,4-d]pyrimidin-7-ylamino]-phenyl}-N-methyl-methanesulfonamide]
[1]
  IC50: 3780 nM
[2]
  IC50: 2290 nM

## FC(F)(F)c1ccc(Nc2nc(N3CCNCC3)nc3sc(Nc4c(Cl)cccc4Cl)nc23)cc1Cl [Example 162, N^7-(3-Chloro-4-trifluoromethyl-phenyl)-N^2-(2,6-dichloro-phenyl)-5-piperazin-1-yl-thiazolo[5,4-d]pyrimidine-2,7-diamine]
[1]
  IC50: 4280 nM
[2]
  IC50: 3080 nM

## FC(F)(F)c1ccc(Nc2nc(N3CCNCC3)nc3sc(Nc4c(Cl)cccc4Cl)nc23)cc1 [Example 163, N^2-(2,6-Dichloro-phenyl)-5-piperazin-1-yl-N^7-(4-trifluoromethyl-phenyl)-thiazolo[5,4-d]pyrimidine-2,7-diamine]
[1]
  IC50: 5950 nM
[2]
  IC50: 5140 nM

## Cc1nc(Nc2ccc(N(C)S(C)(=O)=O)cc2)c2nc(Nc3c(C)cccc3C)sc2n1 [Example 164, N-{4-[2-(2,6-Dimethyl-phenylamino)-5-methyl-thiazolo[5,4-d]pyrimidin-7-ylamino]-phenyl}-N-methyl-methanesulfonamide]
[1]
  IC50: 6510 nM
[2]
  IC50: 626 nM

## Cc1ccc(Nc2ncnc3sc(Nc4c(C)cccc4C)nc23)cc1C [Example 165, N^2-(2,6-Dimethyl-phenyl)-N^7-(3,4-dimethyl-phenyl)-thiazolo[5,4-d]pyrimidine-2,7-diamine]
[1]
  IC50: > 6670 nM
[2]
  IC50: > 6670 nM

## Cc1nc(Nc2cccnc2)c2nc(Nc3c(Cl)cccc3Cl)sc2n1 [Example 166, N^2-(2,6-Dichloro-phenyl)-5-methyl-N^7-pyridin-3-yl-thiazolo[5,4-d]pyrimidine-2,7-diamine]
[1]
  IC50: > 6670 nM
[2]
  IC50: > 6670 nM

## Cc1cccc(C)c1Nc1nc2c(Nc3ccc(C(F)(F)F)cc3Cl)ncnc2s1 [Example 167, N^7-(2-Chloro-4-trifluoromethyl-phenyl)-N^2-(2,6-dimethyl-phenyl)-thiazolo[5,4-d]pyrimidine-2,7-diamine]
[1]
  IC50: > 6670 nM
[2]
  IC50: > 6670 nM

## COc1ccc(Nc2ncnc3sc(Nc4c(C)cccc4C)nc23)cc1C(F)(F)F [Example 168, N^2-(2,6-Dimethyl-phenyl)-N^7-(4-methoxy-3-trifluoromethyl-phenyl)-thiazolo[5,4-d]pyrimidine-2,7-diamine]
[1]
  IC50: > 6670 nM
[2]
  IC50: > 6670 nM

## Cc1cccc(C)c1Nc1nc2c(Nc3ccc(C(N)=O)cc3)ncnc2s1 [Example 169, 4-[2-(2,6-Dimethyl-phenylamino)-thiazolo[5,4-d]pyrimidin-7-ylamino]-benzamide]
[1]
  IC50: > 20000 nM
[2]
  IC50: 17300 nM

## Cc1nc(Nc2ccccc2)c2nc(Nc3c(Cl)cccc3Cl)sc2n1 [Example 170, N^2-(2,6-Dichloro-phenyl)-5-methyl-N^7-phenyl-thiazolo[5,4-d]pyrimidine-2,7-diamine]
[1]
  IC50: > 20000 nM
[2]
  IC50: > 20000 nM
